# Laboratory results reported in US4014876A, “Isoxazole derivatives” (Shionogi & Co., Ltd., priority 1969, dated 1977).
# Experiments:
# blood-sugar = assay: Hypoglycemic activity in alloxan-treated rats (Blood-Sugar-Level, oral); format: in vivo, rat (alloxan-treated adult male); conditions: for Percentage of Blood-Sugar-Level (B.S.L.), 1 hr after / Percentage of Blood-Sugar-Level (B.S.L.), 3 hr after / Percentage of Blood-Sugar-Level (B.S.L.), 5 hr after: alloxan rats, change vs control; for Percentage of Blood-Sugar-Level (B.S.L.), Total: total of 1, 3 and 5 hr percentages
# Description: Assay and control groups of rats were used, each group consisting of 5 adult male rats weighing 200 to 250 g and showing about 250 to 350 mg/dl-blood as the initial blood-sugar value, after being treated once with 50 mg/kg of alloxan (i.v.) one week before the assay. The assay and control groups were orally administered a 5 % gum arabic suspension with and without the test compound, respectively. Measurement of the absolute blood-sugar value was carried out thrice (i.e. 1 hour after, 3 hours after, and 5 hours after administration) and the values were compared with those of the control group. Blood-sugar values were determined by an assay technique using the marketed enzymatic glucose reagent: Glucostat (Trade Mark of Worthington Biochemical Corporation, Freehold, N.J., U.S.A.).
# In effect, the marks + and -correspond to increasing and decreasing
# tendency of B.S.L., respectively, after eliminating the difference in
# value between the assay and control groups.
# Blood Free-Fatty-Acid = Blood Free-Fatty-Acid (B.F.F.A.) lowering activity in fasted rats (oral); format: in vivo, rat (male); conditions: 100 mg/kg p.o.; for B.F.F.A. Level, 1 hr after / B.F.F.A. Level, 3 hr after / B.F.F.A. Level, 5 hr after: fasted rats; for B.F.F.A. Level, Total: total of 1, 3 and 5 hr values
# Description: Several groups of male rats weighing 200 to 250 g, each group consisting of 5 rats, were used in the test. Assay and control groups were fasted during 24 hours and then orally given 5 % gum arabic suspension with and without the test compound (100 mg/kg p.o.), respectively. All animals tested were decapitated 1 hour after, 3 hours after, or 5 hours after the treatment, and blood samples were drawn for B.F.F.A. value determination. A percentage factor, as B.F.F.A. Level, was determined according to the Itaya-Ui method [K. Itaya, et al.: J. Lipid Research, Vol. 6, 18 (1965)], calculated by the following equation: [formula] b) Result
# B.F.F.A. Levels are shown in Table II, together with + and - marks and the total of the three values for each compound.
# in vivo = conditions: mouse, oral, mice, 24 hours observation
# Description: For each dose 10 male mice were used, their body-weights ranging from 19 to 21 grams. […] The LD50 means the amount of the test compound being expected to kill just half the number of the animals treated.
Compound,"Percentage of Blood-Sugar-Level (B.S.L.), 1 hr after (blood-sugar; 10 mg/kg dose) [%]","Percentage of Blood-Sugar-Level (B.S.L.), 3 hr after (blood-sugar; 10 mg/kg dose)","Percentage of Blood-Sugar-Level (B.S.L.), 5 hr after (blood-sugar; 10 mg/kg dose)","Percentage of Blood-Sugar-Level (B.S.L.), Total (blood-sugar; 10 mg/kg dose) [%]","Percentage of Blood-Sugar-Level (B.S.L.), 1 hr after (blood-sugar; 100 mg/kg dose) [%]","Percentage of Blood-Sugar-Level (B.S.L.), 3 hr after (blood-sugar; 100 mg/kg dose) [%]","Percentage of Blood-Sugar-Level (B.S.L.), 5 hr after (blood-sugar; 100 mg/kg dose) [%]","Percentage of Blood-Sugar-Level (B.S.L.), Total (blood-sugar; 100 mg/kg dose) [%]","B.F.F.A. Level, 1 hr after (Blood Free-Fatty-Acid) [%]","B.F.F.A. Level, 3 hr after (Blood Free-Fatty-Acid) [%]","B.F.F.A. Level, 5 hr after (Blood Free-Fatty-Acid)","B.F.F.A. Level, Total (Blood Free-Fatty-Acid) [%]",LD50 at 24 h (in vivo) [mg/kg]
"CCc1cc(C(=O)NC(=O)NC(C)C)no1 [Compound 1, N'-i-propyl-N-(5-ethyl-3-isoxazolylcarbonyl)urea]",-8,+2%,+2%,-4,-54,-63,-43,-160,–,–,–,–,–
"Cc1cc(C(=O)NC(=O)N(C)C)no1 [Compound 2, N',N'-dimethyl-N-(5-methyl-3-isoxazolylcarbonyl)urea]",-45,-59%,-29%,–,-33,-59,-59,-151,–,–,–,–,–
"Cc1cc(C(=O)NC(=N)N)no1 [Compound 3, 1-(5-methyl-3-isoxazolylcarbonyl)guanidine]",-11,-39%,-32%,-82,-30,-56,-52,-138,-70,-15,-8%,-93,2000 to 3000
"CNC(=O)N(C)C(=O)c1cc(C)on1 [Compound 4, N,N'-dimethyl-N-(5-methyl-3-isoxazolylcarbonyl)urea]",-15,-36%,-20%,-71,-22,-51,-59,-132,–,–,–,–,–
"Cc1cc(C(=O)N(C)C(=O)N(C)C)no1 [Compound 5, N,N',N'-trimethyl-N-(5-methyl-3-isoxazolylcarbonyl)urea]",-19,-39%,-39%,-97,-24,-40,-40,-104,–,–,–,–,–
"CCCCNC(=O)NS(=O)(=O)c1ccc(C)cc1 [Compound 6, Tolbutamide, reference compound]",–,–,–,–,-9,-26,-23,-58,-40,-45,0%,-85,–
Cc1cc(C(=O)NC(=O)NC2CCCCC2)no1 [N'-cyclohexyl-N-(5-methyl-3-isoxazolylcarbonyl)urea],–,–,–,–,–,–,–,–,-27,-34,-23%,-84,–
Cc1cc(C(=O)NC(=O)NC(C)C)no1 [N'-i-propyl-N-(5-methyl-3-isoxazolylcarbonyl)urea],–,–,–,–,–,–,–,–,-75,-67,-49%,-191,7000 to 8000
CCCCNC(=O)NC(=O)c1cc(C)on1 [N'-n-butyl-N-(5-methyl-3-isoxazolylcarbonyl)urea],–,–,–,–,–,–,–,–,-59,-59,-30%,-129,–
Cc1cc(C(=O)NC(N)=S)no1 [N-(5-methyl-3-isoxazolylcarbonyl)thiourea],–,–,–,–,–,–,–,–,-60,-36,+13%,-83,–
Cc1cc(C(=O)NC(N)=O)no1 [N-(5-methyl-3-isoxazolylcarbonyl)urea],–,–,–,–,–,–,–,–,–,–,–,–,> 10000
